From article PMC4824473, “Dose-Response Analysis of Chemotactic Signaling Response in Salmonella typhimurium LT2 upon Exposure to Cysteine / Cystine Redox Pair” (PLoS ONE, 2016)

Molecular target: T1, Tar (Salmonella enterica, UniProt P02941)
T1 construct: native chromosomal full-length receptor, homodimer in mixed receptor arrays; strain TSS868 (LT2 delta-tsr delta-cheY delta-cheZ) with CheZ-CFP/CheY-YFP plasmid pVS88; other native receptors present
Test: in vivo CheZ-CFP/CheY-YFP FRET of receptor-kinase activity, Hill fit
Format: cell-based
Conditions: live delta-tsr cells, motility buffer pH 7.0, room temperature; attractant; Hill coefficient 1.5; other receptors present; about 1% of Cys possibly oxidized to cystine; read-out: half maximum

T1 sequence (P02941 whole entry): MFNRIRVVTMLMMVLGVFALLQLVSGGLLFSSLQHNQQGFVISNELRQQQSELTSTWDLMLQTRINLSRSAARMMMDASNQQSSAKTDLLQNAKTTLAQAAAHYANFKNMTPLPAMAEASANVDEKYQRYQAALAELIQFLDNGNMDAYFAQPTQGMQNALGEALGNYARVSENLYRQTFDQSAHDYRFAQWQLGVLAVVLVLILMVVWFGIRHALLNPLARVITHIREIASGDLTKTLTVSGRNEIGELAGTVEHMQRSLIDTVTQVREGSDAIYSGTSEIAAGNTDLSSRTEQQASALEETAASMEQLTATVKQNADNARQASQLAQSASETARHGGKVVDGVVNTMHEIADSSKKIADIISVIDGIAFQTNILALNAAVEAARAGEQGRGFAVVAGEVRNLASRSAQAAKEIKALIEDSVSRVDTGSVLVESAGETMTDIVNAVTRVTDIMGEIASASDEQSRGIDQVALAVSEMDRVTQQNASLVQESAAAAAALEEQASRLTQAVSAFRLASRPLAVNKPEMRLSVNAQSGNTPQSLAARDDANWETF

N[C@@H](CS)C(=O)O [Cys]
EC50: 128 µM
